Experimental data published in US20050192262A1, “Treatment of tumours” (priority 2001, published 2005).

Columns and labels:
[1] = tested on: Dunning AT-1 rat prostatic tumour; conditions: sections of treated rat prostatic tumour
Excerpt: Tumours were investigated for Increased apoptosis with the Apop-Tag In situ apoptosis detection kit (Oncor, Gaithersburg, Md.).

PPARγ = molecular target: T1, PPARγ (Mus musculus, UniProt P37238); experiment: Ligand-induced coactivator interaction assay (GST-PPARγ / SRC-1); assay type: biochemical; conditions: for PPARγ-ligand activity of the steroid per se: 10 and 100 μM solutions, no liver cytosol; for band in coactivator assay, steroid incubated with liver cytosol: liver cytosol alone gives weak bands, no PAPS
T1 construct: made in house; host or cells: E. coli strain Y 1090 (GST-PPARγ); TNT Coupled Reticulocyte Lysate System, Promega (SRC-1)
T1 sequence (P37238 whole entry): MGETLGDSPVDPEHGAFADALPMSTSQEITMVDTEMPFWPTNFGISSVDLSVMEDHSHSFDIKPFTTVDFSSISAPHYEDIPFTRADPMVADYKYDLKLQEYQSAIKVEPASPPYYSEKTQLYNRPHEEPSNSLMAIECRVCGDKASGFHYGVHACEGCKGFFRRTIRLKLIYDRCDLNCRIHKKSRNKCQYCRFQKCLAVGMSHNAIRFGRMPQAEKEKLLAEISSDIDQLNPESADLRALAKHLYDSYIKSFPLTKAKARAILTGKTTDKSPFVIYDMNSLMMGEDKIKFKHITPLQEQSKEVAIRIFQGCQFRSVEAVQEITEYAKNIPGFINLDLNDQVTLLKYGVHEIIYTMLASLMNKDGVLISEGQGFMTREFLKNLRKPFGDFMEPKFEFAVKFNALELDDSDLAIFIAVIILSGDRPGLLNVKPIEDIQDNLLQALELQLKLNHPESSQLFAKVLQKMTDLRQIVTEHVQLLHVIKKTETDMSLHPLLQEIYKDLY
T1 sequence (Q15788 whole entry partner): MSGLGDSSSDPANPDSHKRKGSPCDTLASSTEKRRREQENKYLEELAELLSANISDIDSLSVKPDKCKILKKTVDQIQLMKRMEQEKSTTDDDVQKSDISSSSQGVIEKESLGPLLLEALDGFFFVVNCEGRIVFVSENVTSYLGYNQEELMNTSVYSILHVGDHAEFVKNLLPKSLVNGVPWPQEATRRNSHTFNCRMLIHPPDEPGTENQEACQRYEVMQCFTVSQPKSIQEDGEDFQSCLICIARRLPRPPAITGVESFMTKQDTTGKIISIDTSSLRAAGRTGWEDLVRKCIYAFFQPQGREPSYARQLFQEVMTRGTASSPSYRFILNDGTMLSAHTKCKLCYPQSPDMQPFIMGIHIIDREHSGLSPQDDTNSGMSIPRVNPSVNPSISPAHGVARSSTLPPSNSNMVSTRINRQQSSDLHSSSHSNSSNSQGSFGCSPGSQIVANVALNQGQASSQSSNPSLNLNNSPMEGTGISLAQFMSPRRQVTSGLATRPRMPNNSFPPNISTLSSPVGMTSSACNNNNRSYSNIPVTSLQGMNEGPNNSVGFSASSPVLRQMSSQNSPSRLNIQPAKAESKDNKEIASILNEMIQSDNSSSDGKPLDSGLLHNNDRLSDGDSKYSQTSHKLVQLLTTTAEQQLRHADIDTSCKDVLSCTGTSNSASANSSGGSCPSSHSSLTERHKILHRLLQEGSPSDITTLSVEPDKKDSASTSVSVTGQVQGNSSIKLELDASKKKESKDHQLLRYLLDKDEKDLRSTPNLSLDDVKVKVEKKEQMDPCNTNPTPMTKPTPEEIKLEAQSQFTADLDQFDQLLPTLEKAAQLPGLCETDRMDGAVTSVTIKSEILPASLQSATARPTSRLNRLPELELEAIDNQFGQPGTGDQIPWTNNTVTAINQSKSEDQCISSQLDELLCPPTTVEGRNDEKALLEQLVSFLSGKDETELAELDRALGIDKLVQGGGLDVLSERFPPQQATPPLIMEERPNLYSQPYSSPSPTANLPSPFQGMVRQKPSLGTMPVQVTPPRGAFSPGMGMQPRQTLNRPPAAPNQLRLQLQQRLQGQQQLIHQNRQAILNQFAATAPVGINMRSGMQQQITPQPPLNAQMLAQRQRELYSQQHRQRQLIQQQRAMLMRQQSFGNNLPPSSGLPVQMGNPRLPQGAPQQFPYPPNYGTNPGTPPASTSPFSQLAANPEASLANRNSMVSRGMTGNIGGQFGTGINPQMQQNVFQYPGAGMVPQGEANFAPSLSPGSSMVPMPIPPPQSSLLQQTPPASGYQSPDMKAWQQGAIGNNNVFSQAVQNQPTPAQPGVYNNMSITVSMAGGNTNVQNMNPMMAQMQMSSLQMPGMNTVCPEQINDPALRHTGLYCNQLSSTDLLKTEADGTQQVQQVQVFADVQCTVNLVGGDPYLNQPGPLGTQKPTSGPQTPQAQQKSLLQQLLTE
Method: ApcDNA3-SRC-1 construct was used as template to prepare (^35S-methionine)-SRC-1 by in vitro transcription and translation using the TNT® Coupled Reticulocyte Lysate System (Promega).
Ligand-induced interactions between GST-PPARγ and SRC-1: To generate GST-PPARγ fusion protein, mouse PPARγcDNA was inserted into the NcoI-HindIII sites of pGEX-KG, and protein was then expressed in E. coli, strain Y 1090. The bacteria were lysed by sonication in TEDG buffer (50 mM Tris (pH 7.4), 1.5 mM EDTA, 10% glycerol, 0.4 M NaCl, 0.1 mM DTT) containing the following protease inhibitors: 0.5 mM PMSF, 1 mM benzamidine, 10 μg/ml leupeptin, 10 μg/ml antipain and […] aprotinin. The lysates were centrifuged at 100,000×g for 60 min in a SW 41 rotor using a Beckman L8-70 M ultracentrifuge. The fusion protein was immobilized on GSH Sepharose beads (Pharmacia) and then incubated with potential ligands in (FIG. 5) 10 mM Tris (pH7.4), 0.12 M KCl, 8% glycerol, 4 mM DTT, and 0.5% CHAPS (buffer AA) for 30 min at room temperature. Thereafter, (^35S methionine) SRC-1 (ca 0.1 μCi) was added, and the beads were incubated for another hour at 4° C. and then washed extensively with buffer A. SDS sample buffer was added to the beads, and the samples boiled prior to separation on 7.5% SDS-PAGE. Radioactivity was detected by autoradiography.
α- and β-AED were investigated in above assay for PPARγ ligand activity in 10 and 100 μM solutions in ethanol 10%, in distilled water. 10 μL aliquots of α-AED-solution or β-AED-solution were also added to a preparation of a male rat liver cytosolic preparation prepared as follows:
A homogenate of a rat liver, a known source of steroid sulphotransferase activity, was prepared using a food processor. The liver homogenate was protected from serine-proteases by the addition of 2 mmol of PMSF, 1 mmol of EDTA and 10 mmol Tris-HCl buffered to a pH of 7.40. The homogenate was prepared at 4° C. and then centrifuged at 15000 g for 10 minutes, followed by centrifugation at 100000 g for an hour at 4° C. The supernatant was divided into test tubes containing one of the following steroids: 17β-AED or 17α-AED in 5 μM concentration together with 100 μL of liver cytosol. One test tube served as positive control and contained SCR-1.
In a second experiment the following steroids were tested for activity: 17α-AED, 17OH-pregnenolone and 5-androstene-3β,7β,17α-triol with and without 10 μL of […] (PAPS), Sigma Chemicals, corresponding to 0.1 mg of PAPS. One test tube served as a positive control and contained SRC-1 Instead of steroid. One test tube contained liver cytosol where the steroid sulphotransferase was inactivated by heating to 45° C. for 30 minutes. Tubes were stirred at 20° C. for 1 hour and the contents were investigated in the receptor-coactivator assay for ligand activity (FIG. 5).
17α-AED was treated in the method described by Arnostova, Libuse M.; Pouzar, Vladimir; Drasar, Pavel. Inst. Org. Chem. Biochem., Czech. Acad. Sci., Prague, Czech. Synth. Commun. (1990), 20(10), 1521-9, where acetate is used as protection group and pyridine —SO3 complex as the sulfating agent. Deprotection with an excess of 0.8M NaOH in MeOH-water provides the desired hydroxy sulfate, which is investigated, for PPARγ-activity in the ligand-activated-coactivator receptor assay described above.

3T3-L1 fibroblasts = conditions: 200 nM
Method: 3T3L1 fibroblasts from ATCC (embryonic muscle cell-line) batch F-12732 (batch-date 930301) were grown in 500 ml of DMEM, 50 ml of fetal bovine serum (FBS) and 11 ml of PEST. Medium was changed every second day. Cells were passaged when they were 80% confluent.
For differentiating purpose fibroblasts were Incubated in DMEM+10% FCS+5 kg/ml of insulin. 0.1 mM of IBMX and 0.25 μM of dexametason was added. After 2 days cells were transferred to DMEM+10% FCS+5 μg/ml Insulin. Medium was then changed every second day and consisted of DMEM+10% FCS. […] This served as positive control for differentiation.
Fibroblasts were also incubated with the same solutions except that IBMX and dexamethasone were exchanged with solutions of 17α-AED in ethanol and water, making the concentration of 17α-AED 100 or 200 nM in the cultures. Cultures were kept in incubator until confluent.

[2] = tested on: Dunning AT-1, rat prostatic tumour; experiment: Tumour morphology; conditions: Animals I
Method: Group 4 served as untreated, tumour-bearing controls. In all treatments equal amounts of PEG 400 (Sigma Chemicals) and ethanol, 0.5 ml was used as vehicle and injected s.c. adjacent to the tumour site.
In group 2 the experiment was terminated after 96 hours and for the remaining groups after 19 days through asphyxiation of rats with carbon dioxide.

β-catenin = experiment: Western blotting of Dunning AT-1 rat prostate tumours; assay type: in vivo; conditions: for β-catenin expression, optical density: Animals I, controls set to 100, mean (range), α-AED 10 mg 96 hours, β-AED 80 mg 456 hours, α+β sequential; for expression of β-catenin: Animals II, exposure 80 hours in all arms
Method: The animal experiment described above was repeated.
Thawed rat tumours from both experiments above were homogenized in ice cold lysis-buffer. (160 mM NaCl, 10 mM HEPES, 2 mM CaCl2, 5% SDS, 0.5% Triton X-100, 100 μg/ml phenyl-metylsulfonyl fluoride, 1 μg/ml leupeptin and 2 μg/ml aprotinin), placed on ice for 15 minutes and following clarification centrifuged for 10 minutes at 13,000 g. Protein content of homogenates were determined by Lowry assay.
Protein in lysates (90 μg) were separated by electrophoresis using 8% SDS-PAGE and separated proteins were transferred onto a nitrocellulose membrane (Amersham) in trans-blot electrophoretic transfer cell (Bio-Rad Laboratories).
After washing in TTBS the blots were reincubated with horseradish peroxidase conjugated secondary antibody (anti-goat antibodies 2020, Santa Cruz) diluted 1:4000 in TTBS containing 3% (w/v) non-fat, dried milk for one hour. Blots were developed using an enhanced chemiluminescence system (ECL, Amersham) and exposed to Hyperfilm ECL (Amersham). Optical density was measured densitometrically.
The blots were striped and rehybridized with antibodies against β-catenin (C-18, sc. 1496) and COX-2 (C-20, sc 1745) antibodies.
In the second animal experiment tumours were investigated for expression of β-catenin, COX-2 and cyclin D1 (A-12, sc. 8396).

[3] = tested on: Dunning AT-1 rat prostate cancer

Compound	programmed cell death compared to control (TUNEL) [1]	PPARγ-ligand activity of the steroid per se (PPARγ)	band in coactivator assay, steroid incubated with liver cytosol (PPARγ)	PPARγ-ligand activity, steroid + liver cytosol + PAPS (PPARγ; second experiment, active liver cytosol, sulfate formed in situ)	PPARγ-ligand activity, native steroid + liver cytosol (PPARγ; second experiment, without PAPS)	cell proliferation (3T3-L1 fibroblasts)	tumour appearance (morphology) [2]	β-catenin expression, optical density (β-catenin)	expression of β-catenin (β-catenin)	mean S-phase ([3]; treated Dunning AT-1 samples, untreated 25.5%) [%]	Proportion of cells in G1 ([3]; treated tumours, control tumours 59%) [%]
C[C@]12CC[C@H]3[C@@H](CC=C4C[C@@H](O)CC[C@@]43C)[C@@H]1CC[C@H]2O [Compound 17α-AED, androstene-3β,17α-diol]	no sign of increased programmed cell death	No sign of transcription pointing to a ligand activity	band was extinguished	significant difference in signal	insignificant responses	marked inhibition of cell proliferation	devitalized tumour tissue in circumscribed areas	20(15-30)	marked decrease	45.3	35
C[C@]12CC[C@H]3[C@@H](CC=C4C[C@@H](O)CC[C@@]43C)[C@@H]1CC[C@@H]2O [Compound 17β-AED, reference compound]		No sign of transcription pointing to a ligand activity	identical result					14(10-22)	did not reduce		
